Data from patent publication US8741886B2, “Baclofen and acamprosate based therapy of neurological disorders” (Pharnext, priority 2011, dated 2014).

Key:
[1] = test system: rat cortical neurons; test: Toxicity of Aβ1-42 in neurite growth model: total length of neurite network; format: cell-based; details: Aβ1-42 2.5 μM; single drugs at the concentrations used in the combination
Description: Rat cortical neurons were cultured as described by Singer et al. (35). Briefly pregnant female rats of 15 days gestation were killed by cervical dislocation (Rats Wistar) and the foetuses were removed from the uterus. The cortex was removed and placed in ice-cold medium of Leibovitz (L15) containing 2% of Penicillin 10.000 U/ml and Streptomycin 10 mg/ml and 1% of bovine serum albumin (BSA). Cortices were dissociated by trypsin for 20 min at 37° C. (0.05%). The reaction was stopped by the addition of Dulbecco's modified Eagle's medium (DMEM) containing DNasel grade II and 10% of foetal calf serum (FCS). Cells were then mechanically dissociated by 3 serial passages through a 10 ml pipette and centrifuged at 515×g for 10 min at +4° C. […] Viable cells were counted in a Neubauer cytometer using the trypan blue exclusion test. […]
After 24 hours of intoxication, the supernatant is taken off and the cortical neurons are fixed by a cold solution of ethanol (95%) and acetic acid (5%) for 5 min. […] Then, cells are incubated with monoclonal antibody anti microtubule-associated-protein 2 (MAP-2; Sigma) or with anti synaptophysin (SYN, S5798, Sigma) together with anti PSD95 (P246, Sigma) antibodies in order to quantify synapses. […]

[2] = test system: neuronal cortical cells; test: Glutamate toxicity assay on primary cortical neurons (neurite network, neurofilament immunostaining); format: cell-based, rat; details: Baclofen 400 nM, Acamprosate 1.6 nM; glutamate 40 μM, 20 min
Description: The efficacy of drug combinations of the invention is assessed on primary cortical neuron cells. The protocol which is used in these assays is the same as described in section A.I.2 above.
After 12 days of neuron culture, drugs of the candidate combinations are solved in culture medium (+0.1% DMSO). Candidate combinations are then pre-incubated with neurons for 1 hour before the Glutamate injury. One hour after incubation with, Glutamate is added for 20 min, to a final concentration of 40 μM, in presence of candidate combinations, in order to avoid further drug dilutions. At the end of the incubation, medium is changed with medium with candidate combination but without glutamate. The culture is fixed 24 hours after glutamate injury. MK801 (Dizocilpinehydrogen maleate, 77086-22-7-20 μM) is used as a positive control.
After permeabilization with saponin (Sigma), cells are blocked for 2 h with PBS containing 10% goat serum, then the cells are incubated with mouse monoclonal primary antibody against Neurofilament antibody (NF, Sigma).
Nuclei of cells are labeled by a fluorescent marker (Hoechst solution, SIGMA), and neurite network quantified. Six wells per condition are used to assess neuronal survival in 3 different cultures.

[3] = test system: mice injected i.c.v. with Aβ25-35 peptide; test: Spontaneous alternation, Y-maze test, after i.c.v. Aβ25-35; format: in vivo; details: drugs alone: Donepezil 0.25 mg/kg/day, Acamprosate 32 μg/kg/day, Baclofen 480 μg/kg/day
Text: The Y-maze is made of grey polyvinylchloride. Each arm is 40 cm long, 13 cm high, 3 cm wide at the bottom, 10 cm wide at the top, and converging at an equal angle. […] An alternation is defined as entries into all three arms on consecutive occasions.

CC(=O)NCCCS(=O)(=O)O [Acamprosate]
no significant effect: effect on Aβ1-42 intoxication, total length of neurites network (in words) [1] | effect on glutamate intoxication (in words) [2] | effect on percentage of alternation (Y-maze), low doses (in words) [3]

NCC(CC(=O)O)c1ccc(Cl)cc1 (stereo not drawn) [Baclofen]
no significant effect: effect on Aβ1-42 intoxication, total length of neurites network (in words) [1] | effect on glutamate intoxication (in words) [2] | effect on percentage of alternation (Y-maze), low doses (in words) [3]
